From patent US20050197350A1, “Novel quinoline, tetrahydroquinazoline, and pyrimidine derivatives and methods of treatment related to the use thereof” (TAISHO PHARMACEUTICAL CO., LTD., priority 2003, published 2005)

Test system: MCH receptors
Test: MCH receptor activity class (method not given)
Conditions: MCH receptor activity class 1-3 (percent of control at 10^-7 M or IC50)

| Compound | class |
| --- | --- |
| COC(=O)c1sccc1NC(=S)N[C@H]1CC[C@@H](Nc2nccc(N(C)C)n2)CC1 [compound 2357] | 3 (Class 3 The value of percent of control at 10^−7 M was more than 60% or the value of IC50 was more than 200 nM.) |
| CCCCc1ccc(NC(=S)N[C@H]2CC[C@@H](Nc3nccc(N(C)C)n3)CC2)c(C)c1 [compound 2358] | 3 (Class 3 The value of percent of control at 10^−7 M was more than 60% or the value of IC50 was more than 200 nM.) |
| CN(C)c1cc(N[C@H]2CC[C@@H](CNC(=O)Nc3ccccc3Cl)CC2)nc2ccccc12 [compound 2359] | 3 (Class 3 The value of percent of control at 10^−7 M was more than 60% or the value of IC50 was more than 200 nM.) |
| Cc1cccc(C)c1NC(=O)NC[C@H]1CC[C@@H](Nc2cc(N(C)C)c3ccccc3n2)CC1 [compound 2360] | 3 (Class 3 The value of percent of control at 10^−7 M was more than 60% or the value of IC50 was more than 200 nM.) |
| CN(C)c1cc(N[C@H]2CC[C@@H](CNC(=O)Nc3ccc(F)cc3F)CC2)nc2ccccc12 [compound 2361] | 3 (Class 3 The value of percent of control at 10^−7 M was more than 60% or the value of IC50 was more than 200 nM.) |
| CCc1cccc(C)c1NC(=O)NC[C@H]1CC[C@@H](Nc2cc(N(C)C)c3ccccc3n2)CC1 [compound 2362, N-[(cis-4-{[4-(dimethylamino)quinolin-2-yl]amino}cyclohexyl)methyl]-N′-(2-ethyl-6-methylphenyl)urea] | 2 (Class 2: The value of percent of control at 10^−7 M was from 40% to 60% or the value of IC′50 was from 50 nM to 200 nM.) |
| CN(C)c1cc(N[C@H]2CC[C@@H](CNC(=O)Nc3ccc(F)cc3)CC2)nc2ccccc12 [compound 2364] | 3 (Class 3 The value of percent of control at 10^−7 M was more than 60% or the value of IC50 was more than 200 nM.) |
| CSc1ccc(NC(=O)NC[C@H]2CC[C@@H](Nc3cc(N(C)C)c4ccccc4n3)CC2)cc1 [compound 2365] | 3 (Class 3 The value of percent of control at 10^−7 M was more than 60% or the value of IC50 was more than 200 nM.) |
| CN(C)c1cc(N[C@H]2CC[C@@H](CNC(=O)Nc3ccccc3C(F)(F)F)CC2)nc2ccccc12 [compound 2366] | 3 (Class 3 The value of percent of control at 10^−7 M was more than 60% or the value of IC50 was more than 200 nM.) |
| Cc1cc(C)c(NC(=O)NC[C@H]2CC[C@@H](Nc3cc(N(C)C)c4ccccc4n3)CC2)c(C)c1 [compound 2367, N-[(cis-4-{[4-(dimethylamino)quinolin-2-yl]amino}cyclohexyl)methyl]-N′-mesitylurea] | 2 (Class 2: The value of percent of control at 10^−7 M was from 40% to 60% or the value of IC′50 was from 50 nM to 200 nM.) |
| Cc1ccccc1NC(=O)NC[C@H]1CC[C@@H](Nc2cc(N(C)C)c3ccccc3n2)CC1 [compound 2368] | 3 (Class 3 The value of percent of control at 10^−7 M was more than 60% or the value of IC50 was more than 200 nM.) |
| CN(C)c1cc(N[C@H]2CC[C@@H](CNC(=O)Nc3c(Cl)cc(Cl)cc3Cl)CC2)nc2ccccc12 [compound 2369, N-[(cis-4-{[4-(dimethylamino)quinolin-2-yl]amino}cyclohexyl)methyl]-N′-(2,4,6-trichlorophenyl)urea] | 1 (Class 1: The value of percent of control at 10^−7 M was less than 40% or the value of IC50 was less than 50 nM.) |
| CN(C)c1cc(N[C@H]2CC[C@@H](CNC(=O)Nc3c(F)cc(Br)cc3Br)CC2)nc2ccccc12 [compound 2371, N-(2,4-dibromo-6-fluorophenyl)-N′-[(cis-4-{[4-(dimethylamino)quinolin-2-yl]amino}cyclohexyl)methyl]urea] | 1 (Class 1: The value of percent of control at 10^−7 M was less than 40% or the value of IC50 was less than 50 nM.) |
| CCc1cccc(CC)c1NC(=O)NC[C@H]1CC[C@@H](Nc2cc(N(C)C)c3ccccc3n2)CC1 [compound 2372] | 2 (Class 2: The value of percent of control at 10^−7 M was from 40% to 60% or the value of IC′50 was from 50 nM to 200 nM.) |
| CN(C)c1cc(N[C@H]2CC[C@@H](CNC(=O)Nc3c(Cl)cccc3C(F)(F)F)CC2)nc2ccccc12 [compound 2373] | 2 (Class 2: The value of percent of control at 10^−7 M was from 40% to 60% or the value of IC′50 was from 50 nM to 200 nM.) |
| Cc1cccc(Cl)c1NC(=O)NC[C@H]1CC[C@@H](Nc2cc(N(C)C)c3ccccc3n2)CC1 [compound 2374] | 3 (Class 3 The value of percent of control at 10^−7 M was more than 60% or the value of IC50 was more than 200 nM.) |
| CN(C)c1cc(N[C@H]2CC[C@@H](CNC(=O)NCc3ccccc3Cl)CC2)nc2ccccc12 [compound 2375] | 3 (Class 3 The value of percent of control at 10^−7 M was more than 60% or the value of IC50 was more than 200 nM.) |
| CCc1cccc(C(C)C)c1NC(=O)NC[C@H]1CC[C@@H](Nc2cc(N(C)C)c3ccccc3n2)CC1 [compound 2376, N-[(cis-4-{[4-(dimethylamino)quinolin-2-yl]amino}cyclohexyl)methyl]-N′-(2-ethyl-6-isopropylphenyl)urea] | 1 (Class 1: The value of percent of control at 10^−7 M was less than 40% or the value of IC50 was less than 50 nM.) |
| CCc1ccccc1NC(=O)NC[C@H]1CC[C@@H](Nc2cc(N(C)C)c3ccccc3n2)CC1 [compound 2377] | 3 (Class 3 The value of percent of control at 10^−7 M was more than 60% or the value of IC50 was more than 200 nM.) |

| Compound | class |
| --- | --- |
| CN(C)c1cc(N[C@H]2CC[C@@H](CNC(=O)Nc3ccccc3I)CC2)nc2ccccc12 [compound 2378] | 3 (Class 3 The value of percent of control at 10^−7 M was more than 60% or the value of IC50 was more than 200 nM.) |
| Cc1cccc(C(C)C)c1NC(=O)NC[C@H]1CC[C@@H](Nc2cc(N(C)C)c3ccccc3n2)CC1 [compound 2379] | 2 (Class 2: The value of percent of control at 10^−7 M was from 40% to 60% or the value of IC′50 was from 50 nM to 200 nM.) |
| CC(C)c1ccccc1NC(=O)NC[C@H]1CC[C@@H](Nc2cc(N(C)C)c3ccccc3n2)CC1 [compound 2380] | 3 (Class 3 The value of percent of control at 10^−7 M was more than 60% or the value of IC50 was more than 200 nM.) |
| Cc1c(NC(=O)NC[C@H]2CC[C@@H](Nc3cc(N(C)C)c4ccccc4n3)CC2)cccc1[N+](=O)[O-] [compound 2381, N-[(cis-4-{[4-(dimethylamino)quinolin-2-yl]amino}cyclohexyl)methyl]-N′-(2-methyl-3-nitrophenyl)urea] | 2 (Class 2: The value of percent of control at 10^−7 M was from 40% to 60% or the value of IC′50 was from 50 nM to 200 nM.) |
| CCCc1ccccc1NC(=O)NC[C@H]1CC[C@@H](Nc2cc(N(C)C)c3ccccc3n2)CC1 [compound 2382] | 3 (Class 3 The value of percent of control at 10^−7 M was more than 60% or the value of IC50 was more than 200 nM.) |
| Cc1cccc(C(C)(C)C)c1NC(=O)NC[C@H]1CC[C@@H](Nc2cc(N(C)C)c3ccccc3n2)CC1 [compound 2383, N-(2-tert-butyl-6-methylphenyl)-N′-[(cis-4-{[4-(dimethylamino)quinolin-2-yl]amino}cyclohexyl)methyl]urea] | 1 (Class 1: The value of percent of control at 10^−7 M was less than 40% or the value of IC50 was less than 50 nM.) |
| CN(C)c1cc(N[C@H]2CC[C@@H](CNC(=O)Nc3ccccc3C(C)(C)C)CC2)nc2ccccc12 [compound 2384] | 1 (Class 1: The value of percent of control at 10^−7 M was less than 40% or the value of IC50 was less than 50 nM.) |
| Cc1c(Cl)cccc1NC(=O)NC[C@H]1CC[C@@H](Nc2cc(N(C)C)c3ccccc3n2)CC1 [compound 2385] | 3 (Class 3 The value of percent of control at 10^−7 M was more than 60% or the value of IC50 was more than 200 nM.) |
| CN(C)c1cc(N[C@H]2CC[C@@H](CNC(=O)Nc3c(F)cc(Br)cc3F)CC2)nc2ccccc12 [compound 2386] | 3 (Class 3 The value of percent of control at 10^−7 M was more than 60% or the value of IC50 was more than 200 nM.) |
| CN(C)c1cc(N[C@H]2CC[C@@H](CNC(=O)Nc3ccc(Cl)cc3C(F)(F)F)CC2)nc2ccccc12 [compound 2387] | 3 (Class 3 The value of percent of control at 10^−7 M was more than 60% or the value of IC50 was more than 200 nM.) |
| CN(C)c1cc(N[C@H]2CC[C@@H](CNC(=O)Nc3ccc(C#N)cc3)CC2)nc2ccccc12 [compound 2388] | 3 (Class 3 The value of percent of control at 10^−7 M was more than 60% or the value of IC50 was more than 200 nM.) |
| CN(C)c1cc(N[C@H]2CC[C@@H](CNC(=O)NC(c3ccccc3)c3ccccc3)CC2)nc2ccccc12 [compound 2389, N-[(cis-4-{[4-(dimethylamino)quinolin-2-yl]amino}cyclohexyl)methyl]-N′-(diphenylmethyl)urea] | 2 (Class 2: The value of percent of control at 10^−7 M was from 40% to 60% or the value of IC′50 was from 50 nM to 200 nM.) |
| Cc1cc(Br)cc(C)c1NC(=O)NC[C@H]1CC[C@@H](Nc2cc(N(C)C)c3ccccc3n2)CC1 [compound 2390, N-(4-bromo-2,6-dimethylphenyl)-N′-[(cis-4-{[4-(dimethylamino)quinolin-2-yl]amino}cyclohexyl)methyl]urea] | 1 (Class 1: The value of percent of control at 10^−7 M was less than 40% or the value of IC50 was less than 50 nM.) |
| Cc1noc(-c2ccccc2)c1NC(=O)NC[C@H]1CC[C@@H](Nc2cc(N(C)C)c3ccccc3n2)CC1 [compound 2391] | 3 (Class 3 The value of percent of control at 10^−7 M was more than 60% or the value of IC50 was more than 200 nM.) |
| Cc1cc(NC(=O)NC[C@H]2CC[C@@H](Nc3cc(N(C)C)c4ccccc4n3)CC2)c(C(F)(F)F)o1 [compound 2392] | 3 (Class 3 The value of percent of control at 10^−7 M was more than 60% or the value of IC50 was more than 200 nM.) |
| CN(C)c1cc(N[C@H]2CC[C@@H](CNC(=O)Nc3cc(Cl)cc(Cl)c3)CC2)nc2ccccc12 [compound 2393] | 3 (Class 3 The value of percent of control at 10^−7 M was more than 60% or the value of IC50 was more than 200 nM.) |
| CN(C)c1cc(N[C@H]2CC[C@@H](CNC(=O)Nc3cccc(Cl)c3Cl)CC2)nc2ccccc12 [compound 2394] | 2 (Class 2: The value of percent of control at 10^−7 M was from 40% to 60% or the value of IC′50 was from 50 nM to 200 nM.) |
| Cc1ccc(NC(=O)NC[C@H]2CC[C@@H](Nc3cc(N(C)C)c4ccccc4n3)CC2)cc1 [compound 2395] | 3 (Class 3 The value of percent of control at 10^−7 M was more than 60% or the value of IC50 was more than 200 nM.) |
